Tests used:
[1] = system: zebrafish (Danio rerio; strain AB); assay: Zebrafish novel tank test (NTT)
Experimental: Adult male and female wild-type zebrafish were treated with the compounds for 20 min in a final volume of 50 ml in a 250-ml treatment beaker one fish at a time. The fish were briefly rinsed in fresh system water, and then immediately transferred to a trapezoidal tank (14.6 cm height x 5.5 cm width x 27.9 cm top length and x 23.6 cm bottom length) filled with 1.5 L system water. The behavior of the fish was monitored for the next 5 min by using the Noldus EthoVision XT system (Wageningen, Netherlands), with the camera placed approximately 1 m from the test tank. The part of the tank filled with water (11.5 cm height) was virtually divided into top, center, and bottom of equal heights (approximately 3.8 cm per segment) for the analysis. The average time spent at the top and bottom portions of the tank was analyzed to determine the anxiety-like behavior of fish. The average total distance travelled and freezing time were calculated to determine the effects of the compounds on the general behavior of fish. Freezing was defined by a complete cessation of movement except for gills and eyes ([Kalueff et al., 2013]). A minimum of 12 fish (6 females and 6 males) per condition were used for the study. The experimenter was blind to the test conditions.
If not, the dose was reduced until no obvious signs of tolerability problems were observed. […] The concentrations were calculated based on the free base molecular weight. Buspirone—a clinical anxiolytic drug used acutely and chronically to investigate the change in the anxiety-like behavior ([Maximino, et al., 2011]; [Maximino, et al., 2013])—was included as a positive control.

C57Bl/6 mice [2] = assay: SmartCube behavioral profiling; type: in vivo; details: single i.p. injection, all doses tested
Excerpt: The SmartCube^ ® system is a unique mouse behavior profiling system developed by PsychoGenics Inc. It extracts over 2000 spontaneous and challenge-induced behavioral features during a session ([Alexandrov et al., 2015]; [Alexandrov et al., 2016]). The recorded behavioral parameters are then compared against the behavioral profiles of marketed reference compounds in the database, and the test compounds are classified into known drug classes using PsychoGenics’ proprietary bioinformatics algorithms. In brief, mice were i. p. injected with vehicle or test compound at 10 ml/kg body weight and placed in the SmartCube^ ® arena (24 cm × 25 cm) 15 min later. Spontaneous and stimulus-induced behaviors of mice were recorded using force sensors distributed throughout the arena during a 45-min test session. In addition, three high-resolution video cameras provided a constant 3-dimensional (3D) view of the mouse behavior in the SmartCube^ ® arena throughout the testing period. The bedding was vacuumed, and the arena was cleaned with NOLVASAN^ ® solution between each run. Data from the SmartCube^ ® test were processed using PsychoGenics’ proprietary Computer Vision feature extraction, Bayesian probabilistic density models, and data mining algorithms, trained on a large library of reference compounds with known therapeutic indications to predict the underlying class of each test compound ([Alexandrov et al., 2015]; [Alexandrov et al., 2016]). Twelve mice were tested per condition. Mice were terminated after the completion of the SmartCube^ ® test.
The doses were calculated based on the free base molecular weight. The doses were selected based on the tolerability test results.

C57Bl/6 mice [3] = assay: Tolerability test (body weight, body temperature, passive signs, manipulation responses); details: mouse, in vivo, ip, 10 mg/kg
Experimental: In brief, mice were single-housed prior to the test and evaluated for baseline body weight, body temperature, and other parameters. […] On day 1, the mice were i. p. injected with saline (vehicle) or a test compound at 10 ml/kg body weight. Then, body temperature was measured at 15 min, 4 h, and 24 h and body weight on days 1 and 2. Neurological and motor parameters were evaluated at 15 min, 2 h, and 4 h after administration. The list of parameters is provided in Supplementary Figure S1 in Supplementary Material S1.
In addition, within 5 min after the 15-min observation period, mice were placed in open-field chambers for 30 min to determine their general motor activity (distance traveled), ambulatory time, and number of rears. The open-field chambers were made of Plexiglas (27.3 × 27.3 × 20.3 cm; Med Associates Inc, St Albans, VT, United States) surrounded by infrared photobeam sources (16 × 16 × 16 beams). Horizontal activity (distance and time traveled) and vertical activity (number and frequency of rears) were measured by consecutive beam breaks. At the end of each open-field test session, the chambers were thoroughly cleaned with NOLVASAN® solution (Zoetis Services LLC, Parsippany, NJ, United States). Four mice were used per treatment condition. Mice were terminated after completion of the last tolerability observation.
All compounds were diluted in saline, and the pH was adjusted to approximately 7.0 with HCl or NaOH on the day of the experiment. […] The doses were calculated based on the free base molecular weight of the compounds.
For the tolerability tests, passive signs and manipulation responses were analyzed for effects of the treatment by the Kruskal–Wallis test. Body temperature and body weight data were analyzed by two-way repeated measures analysis of variance (ANOVA). The total distance and time traveled and number and frequency of rears in the open-field activity test were analyzed by one-way ANOVA, followed by the Tukey post-hoc test. For the analyses of the zebrafish NTT data, one-way ANOVA was used, followed by Dunnett’s multiple comparison test, if it passed the Shapiro-Wilk normality test. […] An effect was considered significant if p < 0.05. The half maximal effective concentration (EC50) and half-maximal inhibitory concentration (IC50) for the receptor pharmacology and neurotransmitter release assay were determined by using nonlinear regression analysis. Statistical analyses were conducted using GraphPad Prism.

## CN1C(=O)CC[C@H]1c1cccnc1 [Cotinine, (-)-cotinine]
[1]; 100 mg/L
  freezing time: without affecting their freezing time
  total distance traveled: reduced
[1]; 100 mg/kg, 20 min treatment
  time spent at the bottom: spent less time at the bottom
[1]; any doses (30, 100, and 300 mg/L)
  time spent at the top: not affected
[1]; other concentrations (30 and 300 mg/L)
  time spent at the bottom: no effect
[1]; zebrafish
  concentration inducing anxiolytic-like effect, fold higher than nicotine: 100 fold
C57Bl/6 mice [2]
  SmartCube drug classification / behavioral features: no detectable effect
C57Bl/6 mice [3]
  tolerability: well tolerated
